PMC10747112, “Triphenylphosphine Derivatives of Allylbenzenes Express Antitumor and Adjuvant Activity When Solubilized with Cyclodextrin-Based Formulations” (Pharmaceuticals, 2023)
Marks after values point to notes of the source that are not given here.

Legend:
[1] = Dissociation constants of complexes with M-β-CD by FTIR spectroscopy (Hill fit); type: physicochemical; details: X-PPh3, complex 1:1 molar ratio, PBS
Text: (§1) FTIR spectroscopy provides valuable data on the interaction of molecules, including those applicable to characterize the non-covalent complexes of apiol-PPh3 (and analogues) with cyclodextrins and heparin. In the FTIR spectra of apiol-PPh3 and analogues (Figure 3a), one characteristic is the bands of valence oscillations of the bonds C=C of the aromatic system (1450–1650 cm^−1) overlapping with the bands of deformation oscillations C-H (1400–1500 cm^−1). The intensity of these peaks increases with the formation of non-covalent complexes of apiol-PPh3 and its analogues with cyclodextrins and heparin due to the transition of the solid phase into solution. Linear fitting of the intensity of peaks in the FTIR spectra on the cyclodextrin or heparin concentration (Section 2.3) in Hill coordinates allows determining the dissociation constants of the complexes (Table 2). The interactions of triphenylphosphine derivatives of allylbenzenes with γ-CD is rather weak (Kd 10 mM values). In the case of M-β-CD, the dissociation constants reach millimolar values, which is sufficient to obtain soluble forms of adjuvants (Table 2). Thus, the β-cyclodextrin derivatives are more suitable in terms of size for inclusion of the adjuvants studied. […] Comparing the values of the dissociation constants of alkylbenzenes and PPh3-derivatives complexes with cyclodextrins, we observed that these Kd values are close, which means that it is the allylbenzene-fragment (of apiol-PPh3) that plunges into the cyclodextrin cavity, and the triphenylphosphine radical looks outward (Figure 3b), which would provide the implementation of mitochondrial targeting of the developed formulations.
(§2) Non-covalent complexes of apiol, apiol-PPh3 and analogues with cyclodextrins (with different molar ratios) and heparin (15 kDa, 1:1 w/w) were obtained by adding solutions of cyclodextrins (100 mg/mL) or heparin (20 mg/mL) in PBS to apiol or apiol-PPh3 (or analogues) samples (2–3 mg). The excess of CDs or heparin was varied from 0.04 to 10 mol/mol. Then, mixtures were incubated for 1 h at 40 °C. Cyclodextrin or heparin are necessary for the solubilization of extremely poorly soluble compounds.
(§3) The ATR-FTIR spectra of samples (Section 3.3) were acquired using a Bruker Tensor 27 spectrometer equipped with a liquid N2 cooled MCT (mercury cadmium telluride) detector. Samples were placed in a thermostatic cell BioATR-II with ZnSe ATR element (Bruker, Germany). FTIR spectra were recorded from 850 to 4000 cm^−1 with 1 cm^−1 spectral resolution; 50 scans were accumulated and averaged. Spectral data were processed using the Bruker software system Opus 8.2.28 (Bruker, Germany). The spectrum of cyclodextrin or heparin in the corresponding concentration was subtracted from the spectra of the complexes. […]

[2] = Dissociation constants of complexes with heparin by FTIR spectroscopy (Hill fit); type: physicochemical; details: calculated per one unit of heparin C12H19NO20S3, PBS
Text: as §1, §2, §3

A549 cells = assay: MTT assay, cytotoxic activity against A549; type: cell-based; details: Homo sapiens, A549; X in M-β-CD 1:5 mol/mol; MTT; read-out: −lg (IC50) of X in M-β-CD against A549 (converted)
Method: Concentrations of the active substance varied from 10^−2 to 10^−4 M. For MTT assay and biological experiments, substances in the concentration range from 10^−3 to 10^−9 M were studied by the dilution of initial ones in a cell growth medium or buffer.
Adenocarcinomic human alveolar basal epithelial cells A549 cell lines (Manassas, VA, USA) were cultured in RPMI-1640 medium, linear cells of the embryonic kidney human epithelium (HEK293T) were grown in DMEM medium as described earlier. Cell lines were obtained from Lomonosov Moscow State University Depository of Live Systems Collection and Laboratory of Medical Biotechnology, Institute of Biomedical Chemistry (Moscow, Russia).
The cytotoxic activity of paclitaxel, Apiol-PPh3 and analogues was determined using an MTT test. Paclitaxel-adjuvant synergism coefficients (SC) were calculated as CV (paclitaxel) × CV (alone adjuvant)/CV (combo paclitaxel + adjuvant), where CV represents the cell viability. The synergy coefficient can be interpreted as strong synergy (SC > 2), synergy (2 > SC > 1.2), indifference/additivity (1.2 > SC > 0.8), antagonism (0.8 > SC > 0.5), and inhibition (SC < 0.5), as described earlier.

whole blood = assay: Thrombogenicity (whole blood thrombosis); details: 0.1 mg/mL
Text: (§4) Hemolytic activity and thrombogenicity are the primary parameters for evaluating the safety of medical formulations. The phenotypic sea urchin embryo assay developed by colleagues is a visual way to study the toxicity of formulations in vivo. The sea urchin and human genomes contain more than 7000 common genes, including orthologs associated with a number of human diseases. Therefore, sea urchins can be considered as a reliable and versatile model organism for studying the safety of new and existing cytotoxic formulations in vivo. Table 5 presents data on the % of erythrocyte hemolysis, the degree of whole blood thrombosis of apiol-PPh3 and analogues, and data of phenotypic sea urchin embryo assay. Thus, the non-toxicity of PPh3 derivatives of allylbenzenes for normal non-cancer cells, as well as the selectivity of action against cancer cells, is shown. The selectivity of cytotoxic action against cancer cells in comparison with normal cells can be explained by the fact that the PPh3- cation provides selective accumulation and reduction in the mitochondrial membrane potential of the transformed cancer cells. Cyclodextrin (M-β-CD) and heparin are non-toxic (and approved by the FDA for intravenous application).
The hemolytic activity and thrombogenicity of apiol-PPh3 and analogues were studied using an earlier published technique.

sea urchin embryos = assay: Phenotypic sea urchin embryo assay; type: in vivo; details: X in M-β-CD
Text: as §4
Adult sea urchins, Paracentrotus lividus L. (Echinidae), were collected from the Mediterranean Sea on the Cyprus coast and kept in an aerated seawater tank and were used to study the cleavage alteration of Apiol-PPh3 and analogues. Experiments with sea urchin embryos comply with the requirements of biological ethics.

SMILES	−lg Kd (X − M-β-CD) [1]	−lg Kd (X − Heparin) [2]	IC50 (A549 cells) [µM]	Thrombosis Index (whole blood) [%]	Concentration Causing Changes in Sea Urchin Embryos (sea urchin embryos)
COc1cc(CCC[P+](c2ccccc2)(c2ccccc2)c2ccccc2)c(OC)c(OC)c1OC [Allyltetramethoxybenzene-PPh3]	3.1 ± 0.2	3.2 ± 0.1	15.8	0.7 ± 0.2	>4 *** μM
COc1cc(CCC[P+](c2ccccc2)(c2ccccc2)c2ccccc2)c(OC)c2c1OCO2 [Apiol-PPh3]	2.9 ± 0.3	2.7 ± 0.2	1.58	1.1 ± 0.2	>4 *** μM
COc1c(CCC[P+](c2ccccc2)(c2ccccc2)c2ccccc2)cc2c(c1OC)OCO2 [Dillapiol-PPh3]	2.6 ± 0.2	3.0 ± 0.3	2.51	1.0 ± 0.1	>4 *** μM
COc1cc(CCC[P+](c2ccccc2)(c2ccccc2)c2ccccc2)cc2c1OCO2 [Myristicin-PPh3]	3.0 ± 0.3	2.6 ± 0.2	5.01	1.5 ± 0.2	>4 *** μM
